Source: patent US20260102460A1, “NOVEL COMBINATIONS OF ANTIBIOTICS AND NON-ANTIBIOTIC DRUGS EFFECTIVE IN VIVO AGAINST GRAM-POSITIVE BACTERIA, IN PARTICULAR METHICILLIN-RESISTANT S. AUREUS (MRSA)” (EUROPEAN MOLECULAR BIOLOGY LABORATORY, priority 2022, published 2026)

Tests used:
Assay type in all cases: cell-based, Staphylococcus aureus
[1] = system: S. aureus Newman; assay: Cytochrome c binding assay (cell surface charge); details: ticagrelor 10 and 5 μg/ml for 20 minutes
Procedure: The cytochrome c binding assay was conducted as previously described (Radlinski, L. C. et al. Chemical Induction of Aminoglycoside Uptake Overcomes Antibiotic Tolerance and Resistance in Staphylococcus aureus. Cell Chem Biol 26, 1355-1364.e4 (2019)). Briefly, overnight cultures of S. aureus Newman were diluted 1:1000 in 20 ml of TSB medium and grown in flasks at 37° C. with continuous shaking until they reached OD578 nm˜0.45. Samples were then incubated in the same conditions with or without 10 and 5 μg/ml ticagrelor for 20 minutes. Samples were centrifuged at 10000 g for 15 minutes, washed twice with 20 mM MOPS buffer (pH 7) and concentrated to reach a final A578 of 10 in a 96 well-plate (ref. 4483481, Applied Biosystems™) containing cytochrome c (0.25 mg/ml, ref. 101467, MP Bio) or MOPS buffer (FIG. 5g). The plate was incubated in the dark at room temperature for 10 minutes. The cell pellets were collected, and the amount of cytochrome c in the supernatant was determined spectrophotometrically at an OD410 nm. Two-fold dilutions of cytochrome c in the same plate, starting from 256 μg/ml, were used to obtain a standard curve onto which a linear model was fitted to calculate cytochrome c concentrations in the other wells. Results are expressed as unbound cytochrome c fraction in the supernatants. Experiments were conducted in four biological replicates.

[2] = system: S. aureus USA300; assay: Time-kill experiments; details: ticagrelor 5 μg/ml, gentamicin 1.5 μg/ml, plated every 30 minutes for 2 hours (FIG. 5d)
Procedure: Overnight cultures of S. aureus USA300 were diluted 1:100 in 20 ml of TSB medium, incubated for 1 h in flasks at 37° C. with continuous shaking and diluted again 1:100 in 20 ml prewarmed TSB with ticagrelor (5 μg/ml), gentamicin (1.5 μg/ml), their combination or without drugs. 50 μl of serial 10-fold dilutions of cultures were plated on TSA plates every 30 minutes for 2 hours. Cell viability was determined by counting CFUs after plates were incubated overnight in four independent experiments.

[3] = system: S. aureus Newman; assay: Ticagrelor MIC upon purine supplementation; details: supplementation with adenosine, inosine or their combination; SSM9PR medium with 1% glucose
Procedure: MICs were tested in all strains for the main screen. Drugs were two-fold serially diluted in 11 concentrations, and 32 no-drug control wells were included in each plate. Experiments were conducted in 384-well plates (ref. 781271 by Greiner BioOne), with a total volume of 30 μl for S. aureus and B. subtilis and 55 μl for S. pneumoniae. Volumes were optimized for each strain to achieve good dynamic range for growth and minimize risk of cross-contamination between wells. Plates were inoculated with a starting optical density at 595 nm (OD595 nm) of 0.01 from an overnight culture. All liquid handling was performed using a Biomek FX liquid handler (Beckman Coulter). Plates were sealed with breathable membranes and incubated at 37° C. OD595 nm was measured every 30 minutes for 14 hours. The MIC was considered as the first concentration at which growth was inhibited. Experiments were conducted in biological duplicates. For the adjuvant screen, antibiotics were tested in S. aureus DSM 20231 at the same concentrations as for the main screen. Non-antibiotics concentrations were selected to fall within therapeutic ranges.
Ticagrelor (ref. SML2482, Sigma-Aldrich) MIC was measured upon purine supplementation in S. aureus Newman as described above in SSM9PR minimal medium supplemented with 1% glucose79, in 384-well plates (ref. 781271 by Greiner BioOne) with a final volume of 30 μl. […]

With `CCCSc1nc(N[C@@H]2C[C@H]2c2ccc(F)c(F)c2)c2nnn([C@@H]3C[C@H](OCCO)[C@@H](O)[C@H]3O)c2n1` [ticagrelor] the “binding of positively-charged cytochrome C to intact S. aureus cells” value [1] was “increased”, the “interaction with gentamicin at killing level (CFU over time)” value [2] was “evident” and the “interaction with gentamicin at killing level (CFU over time)” value ([2]; listed as Ticagrelor) was “synergizes”. The “change of MIC upon purine supplementation” value [3] was “increased”.
